US8410135B2, “4,5 dihydro-(1H)-pyrazole derivatives as cannabinoid CB1 receptor modulators” (Solvay Pharmaceuticals B.V., priority 2007, dated 2013)
Like-named read-outs stand apart in the source and are kept apart here.

Legend:
human CB1 receptors = target: T1, human CB1 receptors (Homo sapiens, UniProt P21554); test: In vitro cannabinoid-CB1 receptor (ant)agonism, [3H]-arachidonic acid release in CHO cells; format: cell-based
T1 construct: expressed in transfected cells; host or cells: CHO cells
Method: In vitro cannabinoid-CB1 receptor (ant)agonism was assessed with human CB1 receptors cloned in CHO cells. CHO cells were grown in a DMEM culture medium, supplemented with 10% heat-inactivated fetal calf serum. Medium was aspirated and replaced by DMEM, without fetal calf serum, but containing [^3H]-arachidonic acid and incubated overnight in a cell culture stove (5% CO2/95% air; 37° C.; water-saturated atmosphere). During this period [^3H]-arachidonic acid was incorporated in membrane phospholipids. On the test day, medium was aspirated and cells were washed three times using 0.5 ml DMEM, containing 0.2% BSA. CB1 agonist stimulation lead to activation of PLA2 followed by release of [^3H]-arachidonic acid into the medium. This CB1 agonist-induced release was concentration-dependently antagonized by CB1 receptor antagonists, such as rimonabant.

[1] = target: T2, human cannabinoid CB2 receptors (Homo sapiens, UniProt P34972); test: In vitro affinity for cannabinoid-CB2 receptors ([3H]CP-55,940 radioligand binding, CHO cell membranes)
T2 construct: expressed in transfected cells
Method: (§1) In vitro affinity for cannabinoid-CB2 receptors: was determined using membrane preparations of CHO cells in which human cannabinoid CB2 receptors were stably transfected in conjunction with [^3H]CP-55,940 as radioligand. After incubation of a freshly prepared cell membrane preparation with the [^3H]-ligand, with or without addition of compounds of the invention, separation of bound and free ligand was performed by filtration over glassfiber filters. Radioactivity on the filter was measured by liquid scintillation counting.

[2] = target: T3, human cannabinoid CB1 receptors (Homo sapiens, UniProt P21554); test: In vitro affinity for cannabinoid-CB1 receptors ([3H]CP-55,940 radioligand binding, CHO cell membranes)
T3 construct: expressed in transfected cells
Method: as §1, with “cannabinoid-CB1 receptors” for “cannabinoid-CB2 receptors:”, “CB1” for “CB2”

[3] = human CB1 receptors cloned in CHO cells, [3H]-arachidonic acid release
[4] = membranes of CHO cells stably transfected with human CB2, radioligand [3H]CP-55,940, mean of at least three independent experiments, read-out: receptor binding Human CB2 [^3H]-CP-55,940 pKi (converted)
[5] = membranes of CHO cells stably transfected with human CB1, radioligand [3H]CP-55,940, mean of at least three independent experiments, read-out: receptor binding Human CB1 [^3H]-CP-55,940 pKi (converted)

T1 sequence (P21554 whole entry): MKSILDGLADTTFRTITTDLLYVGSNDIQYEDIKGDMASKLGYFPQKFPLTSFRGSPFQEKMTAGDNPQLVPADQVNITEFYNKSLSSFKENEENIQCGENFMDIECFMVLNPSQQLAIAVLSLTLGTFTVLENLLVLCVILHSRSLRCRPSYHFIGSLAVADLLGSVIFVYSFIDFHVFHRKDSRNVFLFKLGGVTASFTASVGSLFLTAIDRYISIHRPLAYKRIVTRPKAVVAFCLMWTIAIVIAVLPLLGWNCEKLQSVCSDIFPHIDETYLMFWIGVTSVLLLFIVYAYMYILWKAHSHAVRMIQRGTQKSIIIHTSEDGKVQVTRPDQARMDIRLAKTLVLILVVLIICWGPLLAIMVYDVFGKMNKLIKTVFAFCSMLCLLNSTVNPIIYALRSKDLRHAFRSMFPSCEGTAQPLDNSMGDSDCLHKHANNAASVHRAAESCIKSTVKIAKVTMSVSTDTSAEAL
T3 sequence (P21554 whole entry): as above
T2 sequence (P34972 whole entry): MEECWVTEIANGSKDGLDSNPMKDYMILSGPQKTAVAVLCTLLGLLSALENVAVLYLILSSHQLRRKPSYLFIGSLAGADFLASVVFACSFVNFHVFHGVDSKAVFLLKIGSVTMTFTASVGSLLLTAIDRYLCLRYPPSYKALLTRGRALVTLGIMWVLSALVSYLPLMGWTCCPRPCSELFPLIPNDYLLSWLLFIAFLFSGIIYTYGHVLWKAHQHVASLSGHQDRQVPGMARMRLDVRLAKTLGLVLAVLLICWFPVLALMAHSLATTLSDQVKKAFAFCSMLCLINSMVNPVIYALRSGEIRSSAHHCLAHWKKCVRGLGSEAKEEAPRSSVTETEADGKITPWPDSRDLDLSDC

CCCCC1=NN(C(=O)N[C@@H]2C[C@H]3CC[C@H]2C3)C(C)(C)C1c1ccccc1 (relative stereo) [Compound 19, N-(rel-exo-bicyclo[2.2.1]hept-2-yl)-3-(n-butyl)-5,5-dimethyl-4-phenyl-4,5-dihydro-(1H)-pyrazole-1-carboxamide]
EC50 (human CB1 receptors): 100 nM
Ki [1]: 7.94 nM
Ki [2]: 25.1 nM

CCCCC1=NN(C(=O)N[C@H]2C[C@H]3CC[C@]2(C)C3(C)C)C(C)(C)C1c1ccccc1 (stereo partly drawn) [Compound 2, N-[Endo-(1R,2S,4R)-1,7,7-trimethylbicyclo[2.2.1]hept-2-yl]-3-(n-butyl)-5,5-dimethyl-4-phenyl-4,5-dihydro-(1H)-pyrazole-1-carboxamide]
functional activity h-CB1 agonistic activity [^3H]-Arachidonic acid pEC50 (human CB1 receptors; [3]): 7.4
Ki [1]: 3.98 nM
Ki [2]: 12.6 nM

CCCCC1=NN(C(=O)NC(C)(C)c2ccccc2)C(C)(C)C1c1ccccc1 (stereo not drawn) [Compound 1, N-(1-methyl-1-phenyl-ethyl)-3-(n-butyl)-5,5-dimethyl-4-phenyl-4,5-dihydro-(1H)-pyrazole-1-carboxamide]
functional activity h-CB1 agonistic activity [^3H]-Arachidonic acid pEC50 (human CB1 receptors; [3]): 8.1
Ki [1, 4]: 3.98 nM
Ki [2, 5]: 7.94 nM

CCCCC1=NN(C(=O)CC(C)CC(C)(C)C)C(C)(C)C1c1ccccc1 (mixture of isomers) [Compound 39, [3-(n-butyl)-5,5-dimethyl-4-phenyl-4,5-dihydro-(1H)-pyrazol-1-yl]-3,5,5-trimethylhexan-1-one]
EC50 (human CB1 receptors; human CB1 receptors cloned in CHO cells, [3H]-arachidonic acid release, read-out: functional activity h-CB1 agonistic activity [^3H]-Arachidonic acid pEC50 (converted)): 63.1 nM
Ki [1, 4]: 12.6 nM
Ki [2, 5]: 100 nM
